Here are results for nine compounds from patent US20080311232A1, “Cooling Compounds” (Givaudan, SA, priority 2007, published 2008).

SMILES strings stand for the structures.

What all share (format): in vivo, human
One assay has as its system panelists. The assay can be described thus: Cooling intensity: panelists taste aqueous solutions, compared with menthol at 2 ppm. The note with it: tasted by small group of panelists.
The test system of assay [1] is panelist. Put plainly: Application in chewing gum: 2 g gum chewed by a panelist for 20 minutes, cooling perception. The note with it: for cooling perception rated higher than the control: control = peppermint oil gum. On the procedure:
The gum base, and half of the sorbitol were mixed, maltitol syrup was added and then mixed with the gum mass. The rest of the powdered ingredients (rest of the sorbitol, mannitol, ace-K, aspartame) were added and mixed for about 1 minute, at which point glycerine was added and the gum mass was mixed for about 5 minutes, to form the blank chewing gum mass. Peppermint oil was worked into the mass and a piece of the resulting gum (2 g) was chewed by a panelist for […] and spat out. […] The cooling perception lasted far 50 minutes.
The chemical in the peppermint oil was worked into the blank chewing gum mass from Example 12 a) and a piece of the resulting gum (2 g) was chewed by a panelist for 20 minutes and spat out. […] The cooling perception was rated 43% higher than the control and lasted for over 60 minutes.
The chemical and peppermint oil was worked into the blank chewing gum mass from Example 12 a) and a piece of the resulting gum (2 g) was chewed by a panelist for 20 minutes and spat out. […] The cooling perception was rated 40% higher than the control and lasts for over 60 minutes.
The chemical in the peppermint oil was worked into the blank chewing gum mass from Example 12 a) and a piece of the resulting gum (2 g) was chewed by a panelist for 20 minutes and spat out. […] The cooling perception was rated 27% higher than the control and lasted for over 60 minutes.

Assay [2] deals with panelist. The assay can be described thus: Application in toothpaste: toothgel brushed on a panelist's teeth, cooling perception. The conditions noted are these: for cooling perception rated higher than the control: control = peppermint oil toothgel. On the procedure:
The materials were mixed in the toothgel, a piece of toothgel was put on a toothbrush and a panelist's teeth were brushed. The mouth was rinsed with water and the water spat out. […] The cooling perception lasted for 40 minutes.
The materials were mixed in the toothgel, a piece of toothgel was put on a toothbrush and a panelist's teeth were brushed. The mouth was rinsed with water and the water spat out. […] The cooling perception was rated 24% higher than the control and lasted for 70 minutes.
The materials were mixed in the toothgel, a piece of toothgel was put on a toothbrush and a panelist's teeth were brushed. The mouth was rinsed with water and the water spat out. […] The cooling perception was rated 18% higher than the control and lasted for 60 minutes.
The materials were mixed in the toothgel, a piece of toothgel was put on a toothbrush and a panelist's teeth were brushed. The mouth was rinsed with water and the water spat out. […] The cooling perception was rated 95% higher than the control and lasted for 65 minutes.
The materials were mixed in the toothgel, a piece of toothgel was put on a toothbrush and a panelist's teeth were brushed. The mouth was rinsed with water and the water spat out. […] The cooling perception was rated 100% higher than the control and lasted for 40 minutes.
The materials were mixed in the toothgel, a piece of toothgel was put on a toothbrush and a panelist's teeth were brushed. The mouth was rinsed with water and the water spat out. […] The cooling perception was rated 30% higher than the control and lasted for over 35 minutes.

Setting [3] is: chewing gum: 0.05 g of 1% solution of compound in peppermint oil + 0.45 g peppermint oil.
Where [4] appears, read: toothgel: 0.05 g of 1% solution of compound in peppermint oil + 0.45 g peppermint oil.
The mark [5] stands for this setting: toothgel: 0.025 g compound + 0.50 g peppermint oil.
Setting [6] is: chewing gum: 0.50 g of 1% solution of compound in peppermint oil.
Where [7] appears, read: toothgel: 0.10 g of 1% solution of compound in peppermint oil + 0.40 g peppermint oil.
The mark [8] stands for this setting: toothgel: 0.50 g of 1% solution of compound in peppermint oil.

With `CC1(C)[C@H]2CC[C@](C)(C2)[C@H]1OC(=O)CCC(=O)O` [Example 9, 4-oxo-4-((1R,2R,4S)-1,3,3-trimethylbicyclo[2.2.1]heptan-2-yloxy)butanoic acid], the “Concentration with a cooling intensity similar to or slightly higher than that of a solution of menthol at 2 ppm” value (from here on “Concentration”) with panelists is given as 0.10 ppm.

Regarding `CC1(C)[C@@H]2CC[C@@]1(C)[C@H](OC(=O)CCC(=O)O)C2` [Example 4, 4-oxo-4-((1R,2R,4R)-1,7,7-trimethylbicyclo[2.2.1]heptan-2-yloxy)butanoic acid], in the assay with panelist [1] (setting [3]), the cooling sensation felt result is recorded as “cooling sensation”, the “duration of cooling perception” value was “over 60 minutes” and the “cooling perception rated higher than the control” value was determined as 40%. Further, the “Concentration” value in the assay on panelists is given as 0.001 ppm. In the assay with panelist [2] (setting [4]), the cooling sensation felt result is listed as “intense cooling sensation”, the “duration of cooling perception” value came to 40 min and the “cooling perception rated higher than the control” value is reported as 100%.

With `CC(C)[C@@H]1CC[C@@H](C)C[C@H]1O` [l-Menthol, reference compound], in the assay on panelists, the “Concentration” value amounted to 2.0 ppm.

Turning to `C[C@@H](N)C(=O)OC1C2(C)CCC(C2)C1(C)C` (stereo partly drawn) [Example 8, D-alanine fenchyl ester], the “Concentration” value in the assay with panelists is on record as 0.20 ppm. Besides, in the assay on panelist [2] (setting [5]), the cooling sensation felt entry is listed as “intense cooling sensation”, the “duration of cooling perception” value is “over 35 minutes” and the “cooling perception rated higher than the control” value is 30%.

For `CN(C)C(=O)CCC(=O)O[C@@H]1C2(C)CCC(C2)C1(C)C` (stereo partly drawn) [Example 7, (2R)-1,3,3-trimethylbicyclo[2.2.1]heptan-2-yl 4-(dimethylamino)-4-oxobutanoate], the “Concentration” value with panelists was determined as 0.002 ppm.

As for `O=C(O)CCC(=O)O[C@H]1C[C@@H]2CC[C@H]1C2` [Example 3, 4-((1S,2S,4R)-bicyclo[2.2.1]heptan-2-yloxy)-4-oxobutanoic acid], in the assay on panelist [1] (setting [6]), the cooling sensation felt result is “cooling sensation”, the “duration of cooling perception” value is “over 60 minutes” and the “cooling perception rated higher than the control” value turned out to be 43%. In the assay on panelist [2] (setting [7]), the cooling sensation felt entry is recorded as “intense cooling sensation”, the “duration of cooling perception” value is 70 min and the “cooling perception rated higher than the control” value is given as 24%.

Consider `CCOC(=O)CC(=O)O[C@@H]1C2(C)CCC(C2)C1(C)C` (stereo partly drawn) [Example 6, Ethyl (2R)-1,3,3-trimethylbicyclo[2.2.1]heptan-2-yl malonate], for which the cooling sensation felt entry with panelist [1] (setting [6]) is “cooling sensation”; in the assay with panelist [2] (setting [7]), “intense cooling sensation”; with panelist [2] (setting [8]), “intense cooling sensation”. The “duration of cooling perception” value with panelist [1] (setting [6]) is “over 60 minutes”; with panelist [2] (setting [7]) it was 60 min; in the assay on panelist [2] (setting [8]), 65 min. Further, the results for the “cooling perception rated higher than the control” value in the assay on panelist [1] (setting [6]), with panelist [2] (setting [7]) and in the assay with panelist [2] (setting [8]) were 27%, 18% and 95%, respectively. Besides, the “Concentration” value in the assay on panelists is 0.10 ppm.

As for `CCNC(=O)C1CC(C)CCC1C(C)C` (centres unmarked) [WS-3, N-ethyl p-menthanecarboxamide, reference compound], the “Concentration” value in the assay on panelists worked out at 1.5 ppm.

`CC1(C)[C@H]2CC[C@]1(C)[C@H](OC(=O)CCC(=O)O)C2` [Example 1, 4-oxo-4-(1S,2R,4S)1,7,7-trimethylbicyclo[2.2.1]heptan-2-yloxybutanoic acid]: in the assay with panelists, the “Concentration” value worked out at 0.003 ppm.
